Measured values published in patent US11002524B2, “Cyclic compounds and process for the preparation thereof” (Council of Scientific & Industrial Research, priority 2016, dated 2021).
≈ marks a conversion by molar mass, not a printed value. Where two headings read alike, the source gives them in different places.

Tested on: Salmonella enterica strain AMC (ATCC #6539)
Assay: Antibacterial MIC assay (Promega BacTiter-Glo microbial cell viability assay)
Format: cell-based
Protocol: (§1) The minimum inhibitory concentrations (MICs) are determined using the Promega Bac Titer-Glo microbial cell viability assay, which measures cell viability by quantitation of ATP present, an indicator of metabolic activity of cells. The assays are carried out using Salmonella enterica strain AMC (ATCC #6539), Inocula of S. enterica are prepared from 12-h broth cultures grown in Mueller Hinton broth and the suspensions were then adjusted to a turbidity of 0.5 McFarland. […] Bacterial cells are treated with hunanamycin analogs for 24 hours at ranges from 0.4 to 40 μg/mL and ciprofloxacin as a control ranging from 0.03 to 10 μg/mL. The OD600 is measured using an Envision multi-modal plate reader (Perkin-Elmer, Inc.).
as §1, with “(MICs) were” for “(MICs) are”, “assays were” for “assays are”, “enterica were” for “enterica are”, “cells were” for “cells are”, “OD600 was” for “OD600 is”, “Inc.). The antibiotic assays were performed in Prof. John B. MacMillan's lab, Department of Biochemistry, University of Texas Southwestern Medical Center at Dallas, USA.” for “Inc.).”

[1] = S. enterica AMC ATCC #6539, 24 hours treatment, 0.4 to 40 μg/mL, Mueller Hinton broth, Table 1 in Example 9
[2] = Salmonella enterica, ATCC6539, S. enterica AMC ATCC #6539, 24 hours treatment, 0.4 to 40 μg/mL, Mueller Hinton broth, Table 1 in description, read-out: MIC

Row | Structure (SMILES) | MIC [1] [µg/mL] | MIC [2] [µg/mL] | MIC (Salmonella enterica, ATCC6539, 24 h) [µg/mL]
1 | Cc1cc2[nH]c(=O)c(=O)n(C[C@H](O)[C@H](O)[C@H](O)CO)c2cc1C [Compound 2, 6,7-dimethyl-1-((2S,3S,4R)-2,3,4,5-tetrahydroxypentyl)-1,4-dihydroquinoxaline-2,3-dione] | >32 | > 32 | 
2 | CC(C)=CCn1c(=O)c(=O)n(C[C@H](O)[C@H](O)[C@H](O)CO)c2cc(C)c(C)cc21 [Compound 3, 6,7-dimethyl-1-(3-methylbut-2-en-1-yl)-4-((2S,3S,4R)-2,3,4,5-tetrahydroxypentyl)-1,4-dihydroquinoxaline-2,3-dione] | 16 (≈ 40.8 µM) | 16 (≈ 40.8 µM) | 
3 | C=CCn1c(=O)c(=O)n(C[C@H](O)[C@H](O)[C@H](O)CO)c2cc(C)c(C)cc21 [Compound 4, 1-allyl-6,7-dimethyl-4-((2S,3S,4R)-2,3,4,5-tetrahydroxypentyl)-1,4-dihydroquinoxaline-2,3-dione] | 16 (≈ 43.9 µM) | 16 (≈ 43.9 µM) | 
4 | CCn1c(=O)c(=O)n(C[C@H](O)[C@H](O)[C@H](O)CO)c2cc(C)c(C)cc21 [Compound 5, 1-ethyl-6,7-dimethyl-4-((2S,3S,4R)-2,3,4,5-tetrahydroxypentyl)-1,4-dihydroquinoxaline-2,3-dione] | >32 | > 32 | 
5 | Cc1cc2c(cc1C)n(C[C@H](O)[C@H](O)[C@H](O)CO)c(=O)c(=O)n2CC=C1CCCCC1 [Compound 6, 1-(2-cyclohexylideneethyl)-6,7-dimethyl-4-((2S,3S,4R)-2,3,4,5-tetrahydroxypentyl)-1,4-dihydroquinoxaline-2,3-dione] | >32 | > 32 | 
6 | CCOC(=O)Cn1c(=O)c(=O)n(C[C@H](O)[C@H](O)[C@H](O)CO)c2cc(C)c(C)cc21 [Compound 7, ethyl 2-(6,7-dimethyl-2,3-dioxo-4-((2S,3S,4R)-2,3,4,5-tetrahydroxypentyl)-3,4-dihydroquinoxalin-1(2H)-yl)acetate] | 16 (≈ 39 µM) | 16 (≈ 39 µM) | 
7 | Cc1cc2c(cc1C)n(C[C@H](O)[C@H](O)[C@H](O)CO)c(=O)c(=O)n2Cc1ccccc1 [Compound 8, 1-benzyl-6,7-dimethyl-4-((2S,3S,4R)-2,3,4,5-tetrahydroxypentyl)-1,4-dihydroquinoxaline-2,3-dione] | >32 | > 32 | 
8 | Cc1cc2c(cc1C)n(C[C@H](O)[C@H](O)[C@H](O)CO)c(=O)c(=O)n2CCC1CCCCC1 [Compound 10, 1-(2-cyclohexylethyl)-6,7-dimethyl-4-((2S,3S,4R)-2,3,4,5-tetrahydroxypentyl)-1,4-dihydroquinoxaline-2,3-dione] | 8 (≈ 18.4 µM) | 8 (≈ 18.4 µM) | 
9 | Cc1cc2c3c(c1C)C(C)(C)CCn3c(=O)c(=O)n2C[C@H](O)[C@H](O)[C@H](O)CO [Huanamycin A, 7,7,8,9-tetramethyl-1-((2S,3S,4R)-2,3,4,5-tetrahydroxypentyl)-6,7-dihydro-1H,5H-4l4,41l5-4,41-methanopyrido[3,2,1-ij]quinoxaline-2,3-dione, reference compound] | 8 (≈ 20.4 µM) |  | 8 (≈ 20.4 µM)
